Source: patent US20230023285A1, “PHARMACEUTICAL COMPOSITION FOR USE IN PREVENTING OR STOPPING METASTASES” (LOGICK ENERGETICS B.V., priority 2019, published 2023)

Legend:
EpCAM = EpCAM gene expression by qPCR in MTΔECad cells; type: cell-based, mouse; details: qPCR normalized to GAPDH
Description: (§1) For the stimulation of MTΔECad cells the following concentrations were used: PPS (5 μg/ml), Indomethacin (50 μM), en Pioglitazone (10 μM).
(§2) Untreated cell lines were employed as negative controls. As read-outs of adipogenesis, several approaches were tested: • 1. Oil red O staining by histochemistry. • 2. Nile Red staining by immuno-fluorescence (IF) • 3. RTqPCR (gene expression analysis) • Adiponectin (adipocyte marker) • EpCam (marker for epithelial cells) FIGS. 15a-d show stimulation schemes; FIGS. 15a-b according to prior art, and FIGS. 15c-15d according to the present invention.
(§3) Inventors studied the effect of treatment of MTΔECad cells with the different compounds and combinations on EpCAM expression as a marker for epithelial cells and Adiponectin expression as a marker for adipocytes.
(§4) Steps performed when measuring gene expression using real-time PCR.
(§5) RNA was first isolated and characterized for quantity and integrity. During a two-step reaction, cDNA was first synthesized and then used as a PCR template. The housekeeping gene GAPDH was used for normalizing the results. A normalization factor has been used for calculating each individual sample. Dividing the fluorescent data by its normalization factor produced the normalized data, which was followed by statistical analysis.

Adiponectin = Adiponectin gene expression by qPCR in MTΔECad cells; type: cell-based, mouse; details: qPCR normalized to GAPDH
Description: as §1, §2, §3, §4, §5

Molecule | EpCAM gene expression (EpCAM) | adiponectin gene expression (Adiponectin)
COc1ccc2c(c1)c(CC(=O)O)c(C)n2C(=O)c1ccc(Cl)cc1 [Indomethacin] | clearly stimulated EpCAM expression | obviously stimulated adiponectin gene expression
Pentosan polysulphate [PPS] | no significant effect | no effect
